Read-outs that look alike come from different tables or passages of the source.
Key:
[1] = test system: primary peritoneal mouse macrophages (PMM); assay: cells; settings: Macrophage, read-out: PMM IC50 (uM)
in vitro [2] = settings: human, microsomes, pH 7.4, HLM CLint (uL/min/mg), human liver microsomes
in vitro [3] = settings: mouse, microsomes, pH 7.4, MLM CLint (uL/min/mg), mouse liver microsomes
physchem = settings: HPLC, Ascentis Express RP Amide column, pH 7.4, eLogD, experimental
in vitro [4] = settings: human, THP-1 cells differentiated with PMA
in vitro [5] = settings: human
in vitro [6] = settings: human, HFF-1 cells
in vitro [7] = settings: human, HepG2 cells
in vitro [8] = settings: PAMPA
[9] = test system: Leishmania infantum MHOM/MA(BE)/67/ITMAP263 intracellular amastigotes; assay: microbe, parasite or virus in culture; settings: Macrophage, in Mus musculus
[10] = test system: Leishmania infantum (MHOM/MA/67/ITMAP-263) intracellular amastigotes in THP-1; assay: microbe, parasite or virus in culture; settings: THP-1, read-out: L. infantum MHOM/MA/67/ITMAP263 intracellular amastigotes THP-1 cells IC50 (uM)
[11] = test system: Trypanosoma cruzi, Tulahuen CL2, beta-galactosidase strain; assay: microbe, parasite or virus in culture; settings: MRC5, read-out: T. cruzi Tulahuen C4 (LacZ) IC50 (uM)
[12] = read-out: L. Inf. pIC50, from L. infantum intracellular amastigote IC50 (converted)
[13] = read-out: L. infantum MHOM/MA(BE)/67/ITMAP263 intracellular amastigotes IC50 (uM), intracellular amastigotes

SMILES | IC50 [1] | microsomal CLint at 0.5 μM (in vitro [2]) | microsomal CLint at 0.5 μM (in vitro [3]) | chromatographic logD (physchem) | CC50 at 120 h (in vitro [4]) | CC50 at 3 days (in vitro [5]) | CC50 (in vitro [6]) | CC50 (in vitro [7]) | Papp (in vitro [8]) | IC50 [9, 12] | IC50 [9, 13] | IC50 [10] | IC50 [11]
O=S(=O)(NCc1ccccc1)c1cc2c(cc1Cl)NCN(Cc1ccccc1)S2(=O)=O [DNDI0003392144] | > 64 µM | 82 µL/min/mg | 261 µL/min/mg | 3.7 | 53.2 µM | > 64 µM | 60.2 µM | > 64 µM | 1.61 ×10⁻⁶ cm/s | > 64 µM | > 64 µM | > 64 µM | 35.7 µM
O=C(c1ccc(OCC2CCCO2)c(S(=O)(=O)NCc2ccccc2)c1)N1CCOCC1 (centres unmarked) [DNDI0003407877] | > 64 µM | 85 µL/min/mg | 181 µL/min/mg | 2.7 | > 64 µM | > 64 µM | > 64 µM | > 64 µM | 14.7 ×10⁻⁶ cm/s | > 64 µM | > 64 µM | > 64 µM | 31 µM
COc1ccc(C#N)cc1S(=O)(=O)N(Cc1ccccc1)Cc1cnc(C(F)(F)F)nc1 [DNDI0003425527] | > 64 µM | 80 µL/min/mg | 100 µL/min/mg |  | > 64 µM | > 64 µM | > 64 µM | > 64 µM | 29.4 ×10⁻⁶ cm/s | 3.89 µM | 3.9 µM | 61.1 µM | 28.4 µM
COc1ccc(C(=O)N2CCOCC2)cc1S(=O)(=O)N(Cc1ccc(C(F)(F)F)nc1)CC(C)(C)C [DNDI0003407906] | > 64 µM | 127 µL/min/mg | 262 µL/min/mg |  | > 64 µM | > 64 µM | > 64 µM | > 64 µM | 15.7 ×10⁻⁶ cm/s | 45.7 µM | 45.2 µM | > 64 µM | 35.6 µM
COc1ccc(S(N)(=O)=O)cc1S(=O)(=O)NCc1ccccc1 [DNDI0003407892] | > 64 µM | 20 µL/min/mg | 23 µL/min/mg | 1.1 | > 64 µM | > 64 µM | > 64 µM | > 64 µM | 0.61 ×10⁻⁶ cm/s | > 64 µM | > 64 µM | > 64 µM | > 64 µM
COc1ccc(C(=O)N2CCOCC2)cc1S(=O)(=O)N(Cc1ccc(C(F)(F)F)nc1)C(C)c1ccc(F)cc1 (centres unmarked) [DNDI0003407905] | > 64 µM | 267 µL/min/mg | 531 µL/min/mg | 3.8 | > 64 µM | > 64 µM | 49.4 µM | > 64 µM | 18.1 ×10⁻⁶ cm/s | 2.34 µM | 2.36 µM | 9.86 µM | 25 µM
COCCOCN1CNc2cc(OC)c(S(=O)(=O)N(Cc3ccccc3)Cc3ccccc3)cc2S1(=O)=O [DNDI0003425511] | > 64 µM | 460 µL/min/mg | 976 µL/min/mg |  | 40.2 µM | > 64 µM | > 64 µM | 52 µM | 0.92 ×10⁻⁶ cm/s | 0.661 µM | 0.65 µM | 14.8 µM | 61.7 µM
COc1ccc(S(C)(=O)=O)cc1S(=O)(=O)N(Cc1ccccc1)CC(C)(C)C [DNDI0003425524] | > 64 µM | 1050 µL/min/mg | 1100 µL/min/mg | 3.6 | > 64 µM | > 64 µM | 57.2 µM | > 64 µM | 14.1 ×10⁻⁶ cm/s | 2.69 µM | 2.69 µM | 47.7 µM | 28.7 µM
Nc1cc(Cl)c(S(N)(=O)=O)cc1S(=O)(=O)N(Cc1ccccc1)Cc1ccccc1 [DNDI0003392145] | 50.8 µM | 253 µL/min/mg |  | 3.4 | 60.6 µM | 43.4 µM | > 64 µM | > 64 µM | 3.37 ×10⁻⁶ cm/s | 35.5 µM | 35.3 µM | 31.2 µM | 17.7 µM

Reference: article PMC8126888 (RSC Medicinal Chemistry, 2020)
